According to US4714619A, “Aminomalonyl alanine compounds as dietary sweeteners” (priority 1986, dated 1987):
One block for each compound: values may come before it. Where a SMILES comes first, the peptide text is derived from it.

Tests used:
[1] = Comparative taste test, D- versus L-configuration (Table 2, FIG. 3); design: Sweet? (average score) / Bitter? (average score) / Salty? (average score) / Off Taste? (average score) / After Taste? (average score): scale not given here
Description: The compounds were dissolved in distilled water at the concentrations specified in Table 2. Solutions were made up and kept overnight in a refrigerator. The following day, they were poured into individual graduated plastic cups (10 ml per cup) and allowed to warm to room temperature. A taste panel was convened and testing begun that same day. Tasting and evaluation was done by the standard protocol developed by Dr. Robert Gesteland of Taste and Smell Consulting Group, Inc.
The first solution tasted (reference standard for the panel) was 0.25M sucrose. Other solutions were tasted in radomized fashion. The random order was arrived at as follows:
i. An ordered list of the compounds and concentrations was prepared (26 solutions in all).
ii. 0.25M sucrose was designated as 1.
iii. A standard table of random numbers was used in which the numbers were grouped as two-digit numbers. A point in the table was chosen at random (blind pointing). The first solution in the list was given the first random number in the sequence (read right-to-left, up-to-down) which is between 2 and 26. The second solution in the list was given the next random number in the sequence between 2 and 26, etc. Repeat numbers were ignored.
iv. Solutions were then labeled A (for number 1) B (for random number 2), C-Z.
v. Panelists were instructed to taste the solutions in alphabetical order.
With the assistance of Taste and Smell Consulting Group, Inc., taste panel members were trained adn tested for their ability to discriminate sucrose solutions of varying concentrations. In summary it may be stated that all 9 panel members had acceptble correlation scores. Their results were in good agreement with those which have been previously reported in siilar types of studies. For the test series the correlations for each panelist for sucrose and aspartame were acceptable as were the overall results obtained by averaging individual scores. The results of the taste panel are set forth in Table 2 wherein the parenthetical figures represent the standard error values for the number above.

[2] = Taste panel (Table 1, FIG. 2); details: for After Taste? (average score) / Bitter? (average score) / Off Taste? (average score) / Pleasant? (average score) / Salty? (average score) / Sweet? (average score): normalized to 100
[3] = Stability in aqueous solution (hplc, ambient temperature); format: physicochemical; details: 0.05m phosphate buffer, ambient temperature, read-out: degradation
Description: Stability was examined in aqueous solution at various pHs. Solutions (1% w/v) were prepared in 0.05M phosphate buffer adjusted to pH 7.4 and pH 3.5. Storage at ambient temperature over 36 days was monitored by hplc analysis (waters radial-pak reverse phase C-8 column, 25% CH3 CN, 0.05% TFA/H2 O eluant, 210 nm U.V. detection). Aspartame was examined similarly for comparison purposes.

Structure (SMILES): OC[C@H]1O[C@@](CO)(O[C@H]2O[C@H](CO)[C@@H](O)[C@H](O)[C@H]2O)[C@@H](O)[C@@H]1O [Sucrose]
- After Taste? (average score) ([1]; 62.0000 Millimolar): 10
- Bitter? (average score) ([1]; 62.0000 Millimolar): 6
- Off Taste? (average score) ([1]; 62.0000 Millimolar): 9
- Pleasant? (average score) ([1]; 62.0000 Millimolar): 17
- Salty? (average score) ([1]; 62.0000 Millimolar): 9
- Sweet? (average score) ([1]; 62.0000 Millimolar): 3
- After Taste? (average score) ([1]; 125.0000 Millimolar): 4
- Bitter? (average score) ([1]; 125.0000 Millimolar): 2
- Off Taste? (average score) ([1]; 125.0000 Millimolar): 3
- Pleasant? (average score) ([1]; 125.0000 Millimolar): 21
- Salty? (average score) ([1]; 125.0000 Millimolar): 1
- Sweet? (average score) ([1]; 125.0000 Millimolar): 30
- After Taste? (average score) ([1]; 250.0000 Millimolar): 15
- Bitter? (average score) ([1]; 250.0000 Millimolar): 3
- Off Taste? (average score) ([1]; 250.0000 Millimolar): 12
- Pleasant? (average score) ([1]; 250.0000 Millimolar): 34
- Salty? (average score) ([1]; 250.0000 Millimolar): 7
- Sweet? (average score) ([1]; 250.0000 Millimolar): 52
- After Taste? (average score) ([1]; 500.0000 Millimolar): 9
- Bitter? (average score) ([1]; 500.0000 Millimolar): 0
- Off Taste? (average score) ([1]; 500.0000 Millimolar): 10
- Pleasant? (average score) ([1]; 500.0000 Millimolar): 35
- Salty? (average score) ([1]; 500.0000 Millimolar): 0
- Sweet? (average score) ([1]; 500.0000 Millimolar): 78
- After Taste? (average score) ([1]; 1000.0000 Millimolar): 8
- Bitter? (average score) ([1]; 1000.0000 Millimolar): 0
- Off Taste? (average score) ([1]; 1000.0000 Millimolar): 12
- Pleasant? (average score) ([1]; 1000.0000 Millimolar): 28
- Salty? (average score) ([1]; 1000.0000 Millimolar): 0
- Sweet? (average score) ([1]; 1000.0000 Millimolar): 95
- After Taste? (average score) ([2]; 62.0000 Millimolar): 0
- Bitter? (average score) ([2]; 62.0000 Millimolar): 3
- Off Taste? (average score) ([2]; 62.0000 Millimolar): 4
- Pleasant? (average score) ([2]; 62.0000 Millimolar): -4
- Salty? (average score) ([2]; 62.0000 Millimolar): 0
- Sweet? (average score) ([2]; 62.0000 Millimolar): 13
- After Taste? (average score) ([2]; 125.0000 Millimolar): 5
- Bitter? (average score) ([2]; 125.0000 Millimolar): 2
- Off Taste? (average score) ([2]; 125.0000 Millimolar): 4
- Pleasant? (average score) ([2]; 125.0000 Millimolar): 18
- Salty? (average score) ([2]; 125.0000 Millimolar): 8
- Sweet? (average score) ([2]; 125.0000 Millimolar): 30
- After Taste? (average score) ([2]; 250.0000 Millimolar): 0
- Bitter? (average score) ([2]; 250.0000 Millimolar): 0
- Off Taste? (average score) ([2]; 250.0000 Millimolar): 0
- Pleasant? (average score) ([2]; 250.0000 Millimolar): 49
- Sweet? (average score) ([2]; 250.0000 Millimolar): 64
- After Taste? (average score) ([2]; 500.0000 Millimolar): 7
- Bitter? (average score) ([2]; 500.0000 Millimolar): 6
- Off Taste? (average score) ([2]; 500.0000 Millimolar): 5
- Pleasant? (average score) ([2]; 500.0000 Millimolar): 32
- Salty? (average score) ([2]; 500.0000 Millimolar): 12
- Sweet? (average score) ([2]; 500.0000 Millimolar): 75
- After Taste? (average score) ([2]; 1000.0000 Millimolar): 30
- Bitter? (average score) ([2]; 1000.0000 Millimolar): 0
- Off Taste? (average score) ([2]; 1000.0000 Millimolar): 0
- Pleasant? (average score) ([2]; 1000.0000 Millimolar): 26
- Salty? (average score) ([2]; 1000.0000 Millimolar): 1
- Sweet? (average score) ([2]; 1000.0000 Millimolar): 97

- degraded at 864 h ([3]; pH 3.5, 36 days): > 50%
- degraded at 216 h ([3]; pH 7.4 buffer, 9 days): 100%
Structure (SMILES): COC(=O)[C@H](Cc1ccccc1)NC(=O)[C@@H](N)CC(=O)O [Aspartame, methyl ester of L-α-Aspartyl-L-phenylalanine] (HELM PEPTIDE1{D.F.[CO[*:1]]}$$$$V2.0)
- After Taste? (average score) ([1]; 0.3398 Millimolar): 1
- Bitter? (average score) ([1]; 0.3398 Millimolar): 1
- Off Taste? (average score) ([1]; 0.3398 Millimolar): 1
- Pleasant? (average score) ([1]; 0.3398 Millimolar): 16
- Salty? (average score) ([1]; 0.3398 Millimolar): 0
- Sweet? (average score) ([1]; 0.3398 Millimolar): 9
- After Taste? (average score) ([1]; 1.0194 Millimolar): 7
- Bitter? (average score) ([1]; 1.0194 Millimolar): 3
- Off Taste? (average score) ([1]; 1.0194 Millimolar): 6
- Pleasant? (average score) ([1]; 1.0194 Millimolar): 8
- Salty? (average score) ([1]; 1.0194 Millimolar): 10
- Sweet? (average score) ([1]; 1.0194 Millimolar): 27
- After Taste? (average score) ([1]; 3.3979 Millimolar): 16
- Bitter? (average score) ([1]; 3.3979 Millimolar): 2
- Off Taste? (average score) ([1]; 3.3979 Millimolar): 12
- Pleasant? (average score) ([1]; 3.3979 Millimolar): 22
- Salty? (average score) ([1]; 3.3979 Millimolar): 3
- Sweet? (average score) ([1]; 3.3979 Millimolar): 66
- After Taste? (average score) ([1]; 10.1937 Millimolar): 22
- Bitter? (average score) ([1]; 10.1937 Millimolar): 5
- Off Taste? (average score) ([1]; 10.1937 Millimolar): 17
- Pleasant? (average score) ([1]; 10.1937 Millimolar): 12
- Salty? (average score) ([1]; 10.1937 Millimolar): 0
- Sweet? (average score) ([1]; 10.1937 Millimolar): 64
- After Taste? (average score) ([2]; 0.3392 Millimolar): 1
- Bitter? (average score) ([2]; 0.3392 Millimolar): 0
- Off Taste? (average score) ([2]; 0.3392 Millimolar): 1
- Pleasant? (average score) ([2]; 0.3392 Millimolar): 4
- Salty? (average score) ([2]; 0.3392 Millimolar): 1
- Sweet? (average score) ([2]; 0.3392 Millimolar): 15
- After Taste? (average score) ([2]; 1.0194 Millimolar): 2
- Bitter? (average score) ([2]; 1.0194 Millimolar): 0
- Off Taste? (average score) ([2]; 1.0194 Millimolar): 4
- Pleasant? (average score) ([2]; 1.0194 Millimolar): 15
- Salty? (average score) ([2]; 1.0194 Millimolar): 3
- Sweet? (average score) ([2]; 1.0194 Millimolar): 27
- After Taste? (average score) ([2]; 3.3979 Millimolar): 26
- Bitter? (average score) ([2]; 3.3979 Millimolar): 4
- Off Taste? (average score) ([2]; 3.3979 Millimolar): 2
- Pleasant? (average score) ([2]; 3.3979 Millimolar): 26
- Salty? (average score) ([2]; 3.3979 Millimolar): 2
- Sweet? (average score) ([2]; 3.3979 Millimolar): 68
- After Taste? (average score) ([2]; 10.1937 Millimolar): 34
- Bitter? (average score) ([2]; 10.1937 Millimolar): 0
- Off Taste? (average score) ([2]; 10.1937 Millimolar): 4
- Pleasant? (average score) ([2]; 10.1937 Millimolar): 9
- Salty? (average score) ([2]; 10.1937 Millimolar): 1
- Sweet? (average score) ([2]; 10.1937 Millimolar): 83
- sweetness potency (reciprocal of concentration required for a score of 50) ([2]; sucrose=1.0, weight scale): 126
- taste quality ([2]; taste panel): sweet and pleasant
